Source: patent US8247424B2, “Fredericamycin derivatives” (Zentopharm GmbH, priority 2002, dated 2012)
Values after ≈ are worked out from the molar mass of the structure shown.

Tests used:
[1] = test system: 12 cancer cell lines: LCL (H460, lung), MACL (MCF7, breast), LXFL (52L, lung), LXFA (629L, lung), MEXF (462NL, melanoma), MEXF (514L, melanoma), MAXF (401NL …); test: Biological activity against 12 cancer cell lines, efficacy (IC70) averaged over all cell lines; type: cell-based; conditions: averaged over all 12 cancer cell lines, 5 test concentrations;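 note: panel also covers renal lines RXF 944L and RXF 486L, uterine UXF 1138L, and prostate lines PRXF PC3M and PRXF 22RV1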
Description: LCL (H460, lung), MACL (MCF7, breast), LXFL (52L, lung), LXFA (629L, lung), MEXF (462NL, melanoma), MEXF (514L, melanoma), MAXF (401NL, breast), RXF (944L, renal), RXF (486L, renal), UXF (1138L, uterus), PRXF (PC3M, prostate), PRXF (22RV1).

[2] = Water solubility of the fredericamycin derivatives; type: physicochemical; conditions: 0.9% NaCl solution, pH 7
Text: The water solubility of the various fredericamycin derivatives can be determined in a 0.9% NaCl solution with a pH of 7.

[3] = Water solubility of the fredericamycin derivatives; type: physicochemical; conditions: statement in the synthesis text, medium not given

Molecule | IC70 [1] | water solubility [2] | water solubility compared to fredericamycin (1) [3]
COC1=CC(=O)c2c(O)c3c(c(O)c2C1=O)C(=O)[C@@]1(CCc2cc4cc(C(O)C(O)C(O)C(C)O)[nH]c(=O)c4c(O)c21)C3=O (stereo partly drawn) [Example 1, 1-Desoxy-5-C-[(8R)-4′,9,9′-trihydroxy-6′-methoxy-1,1′,3′,5′,8′-pentaoxo-1,1′,2,3′,5′,6,7,8′-octahydrospiro[cyclopenta[g]isoquinoline-8,2′-cyclopenta[b]-naphalene]-3-yl]pentitol] | 0.1130 µg/mL (≈ 0.186 µM) | – | –
COC1=CC(=O)c2c(O)c3c(c(O)c2C1=O)C(=O)C1(CCc2cc4cc(C(O)C(O)C(O)C(C)O)[nH]c(=O)c4c(O)c21)C3=O [Example 2, Tri-potassium-1-desoxy-5-C-[(8R)-4′,9,9′-trihydroxy-6′-methoxy-1,1′,3′,5′,8′-pentaoxo-1,1′,2,3′,5′,6,7,8′-octahydrospiro[cyclopenta[g]isoquinoline-8,2′-cyclopenta[b]-naphthalene]-3-yl]pentitol] | – | soluble | significantly higher water solubility
COC1=CC(=O)c2c(O)c3c(c(O)c2C1=O)C(=O)[C@]1(CCc2cc4cc(C=O)[nH]c(=O)c4c(O)c21)C3=O [Example 3, (8S)-4′,9,9′-trihydroxy-6′-methoxy-1,1′,3′,5′,8′-pentaoxo-1,1′,2,3′,5′,6,7,8′-octahydrospiro[cyclopenta[g]isoquinoline-8,2′-cyclopenta[b]-naphthalene]-3-carbaldehyde] | – | dissolve very well | –
COC1=CC(=O)c2c(O)c3c(c(O)c2C1=O)C(=O)[C@]1(CCc2cc4cc(/C=N/NC(=O)C[n+]5ccccc5)[nH]c(=O)c4c(O)c21)C3=O.[Cl-] [Example 5, 1-[2-Oxo-2-((2E)-2-{[(8S)-4′,9,9′-trihydroxy-6′-methoxy-1,1′,3′,5′,8′-pentaoxo-1,1′,2,3′,5′,6,7,8′-octahydrospiro[cyclopenta[g]isoquinoline-8,2′-cyclopenta[b]-naphthalene]-3-yl]methylene}hydrazino)-ethyl]pyridinium chloride] | – | sufficiently and markedly better soluble than fredericamycin | –
CON=Cc1cc2cc3c(c(O)c2c(=O)[nH]1)[C@@]1(CC3)C(=O)c2c(O)c3c(c(O)c2C1=O)C(=O)C(OC)=CC3=O [Example 7, (8S)-4′,9,9′-trihydroxy-6′-methoxy-1,1′,3′,5′,8′-pentaoxo-1,1′,2,3′,5′,6,7,8′-octahydrospiro[cyclopenta[g]isoquinoline-8,2′-cyclopenta[b]-naphthalene]-3-carbaldehyde-O-methyloxime] | – | sufficiently and markedly better soluble than fredericamycin | –
COC1=CC(=O)c2c(O)c3c(c(O)c2C1=O)C(=O)[C@]1(CCc2cc4cc(C(=O)O)[nH]c(=O)c4c(O)c21)C3=O [Example 11, (8S)-4′,9,9′-trihydroxy-6′-methoxy-1,1′,3′,5′,8′-pentaoxo-1,1′,2,3′,5′,6,7,8′-octahydrospiro[cyclopenta[g]isoquinoline-8,2′-cyclopenta[b]-naphthalene]-3-carboxylic acid] | – | sufficiently and markedly better soluble than fredericamycin | –
COC1=CC(=O)c2c(O)c3c(c(O)c2C1=O)C(=O)[C@]1(CCc2cc4cc(C(=O)[O-])[nH]c(=O)c4c(O)c21)C3=O.[K+] [Example 12, Potassium(8S)-4′,9,9′-trihydroxy-6′-methoxy-1,1′,3′,5′,8′-pentaoxo-1,1′,2,3′,5′,6,7,8′-octahydrospiro[cyclopenta[g]isoquinoline-8,2′-cyclopenta[b]-naphthalene]-3-carboxylate] | – | sufficiently and markedly better soluble than fredericamycin | –
C/C=C/C=C/c1cc2cc3c(c(O)c2c(=O)[nH]1)[C@@]1(CC3)C(=O)c2c(O)c3c(c(O)c2C1=O)C(=O)C(NC)=CC3=O [Example 265] | 0.1330 µg/mL (≈ 0.247 µM) | – | –
N.N.[Cl][Pt][Cl] [cisplatin] | 37.1020 µg/mL | – | –
(8S)-4′,9,9′-trihydroxy-6′-methoxy-1,1′,3′,5′,8′-pentaoxo-1,1′,2,3′,5′,6,7,8′-octahydrospiro[cyclopenta[g]isoquinoline-8,2′-cyclopenta[b]-naphthalene]-1,1′,3′,5′,8′(2H)-pentone [Example 10] | – | soluble | –
(8S)-4′,9,9′-trihydroxy-6′-methoxy-1,1′,3′,5′,8′-pentaoxo-1,1′,2,3′,5′,6,7,8′-octahydrospiro[cyclopenta[g]isoquinoline-8,2′-cyclopenta[b]-naphthalene]-3-carbaldehyde oxime [Example 6] | – | dissolves well | –
(8S)-5-bromo-4′,9,9′-trihydroxy-6′-methoxy-1,1′,3′,5′,8′-pentaoxo-1,1′,2,3′,5′,6,7,8′-octahydrospiro[cyclopenta[g]isoquinoline-8,2′-cyclopenta[b]-naphthalene]-1,1′,3′,5′,8′(2H)-pentone [Example 13] | 0.0050 µg/mL | soluble | –
(8S)-5-chloro-4′,6′,9′-trimethoxy-2-methoxy-3-[(1E,3E)-penta-1,3-dienyl]-6,7-dihydrospiro[cyclopenta[g]isoquinoline-8,2′-cyclopenta[b]-naphthalene]-1,1′,3′,5′,8′(2H)-pentone [Example 22] | 0.0080 µg/mL | – | –
